Results from patent US11021457B2, “Class of isoindolone-imide ring-1,3-dione-2-ene compounds, composition and use thereof” (WIGEN BIOMEDICINE TECHNOLOGY (SHANGHAI) CO., LTD., priority 2017, dated 2021).
Read-outs that look alike come from different tables or passages of the source.

Columns and labels:
K562 = test: Inhibition of tumor cell proliferation, CellTiter-Glo, K562; format: cell-based; details: compound concentration 50 μM, 72 hours; for cell survival rate (%) at 50 µM: Homo sapiens, K562, read-out: Inhibitory activity against proliferation (cell survival rate) K562
Procedure, shortened: (§1)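 Activity is graded from survival at 50 μM: + for 60 to under 90%, ++ for over 30 to 60%, +++ for 30% or less. Survival was measured luminescently (CellTiter-Glo) 72 h after dosing, relative to untreated and blank wells; 2000-10000 cells/well, 37° C, 5% CO2.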

MDA-MB-453 = test: Inhibition of tumor cell proliferation, CellTiter-Glo, MDA-MB-453; format: cell-based; details: compound concentration 50 μM, 72 hours; for cell survival rate (%) at 50 µM: Homo sapiens, MDA-MB-453, read-out: Inhibitory activity against proliferation (cell survival rate) MDA-MB-453
Procedure, shortened: as §1

A549 = test: Inhibition of tumor cell proliferation, CellTiter-Glo, A549; format: cell-based; details: compound concentration 50 μM, 72 hours; for cell survival rate (% of control) at 50 µM: Homo sapiens, A549, read-out: Inhibitory activity against proliferation (cell survival rate) A549
Procedure, shortened: as §1

LC3B = LC3B (Homo sapiens (Human), UniProt Q9GZQ8); test: Fluorescence polarization experiment targeting LC3B (GST-LC3B with FITC-labeled peptide)
SU-DHL6 = test: Inhibition of tumor cell proliferation, CellTiter-Glo, SU-DHL6; format: cell-based; details: compound concentration 50 μM, 72 hours; for cell survival rate (% of control) at 50 µM: Homo sapiens, SU-DHL-6, read-out: Inhibitory activity against proliferation (cell survival rate) SU-DHL6
Procedure, shortened: as §1

BxPC-3 = test: Inhibition of tumor cell proliferation, CellTiter-Glo, BxPC-3; format: cell-based; details: compound concentration 50 μM, 72 hours; for cell survival rate (%) at 50 µM: Homo sapiens, BXPC-3, read-out: Inhibitory activity against proliferation (cell survival rate) BxPC-3
Procedure, shortened: as §1

RPMI-8226 = test: Inhibition of tumor cell proliferation, CellTiter-Glo, RPMI-8226; format: cell-based; details: compound concentration 50 μM, 72 hours; for cell survival rate (% of control) at 50 µM: Homo sapiens, RPMI-8226, read-out: Inhibitory activity against proliferation (cell survival rate) RPMI-8226
Procedure, shortened: as §1

[1] = GST-LC3B 180 nM, FITC-labeled peptide 18 nM, 25° C.

SMILES: Cc1ccc(C2CC(=O)C(=CNc3cccc4c3CN(C3CCC(=O)NC3=O)C4=O)C(=O)C2)c(Br)c1 (stereo not shown) [Compound 20]
- Inhibitory activity against proliferation (cell survival rate) K562 (K562): ++ (30<survival rate (%)≤60)
- Inhibitory activity against proliferation (cell survival rate) MDA-MB-453 (MDA-MB-453): + (60≤survival rate (%)<90)
- Inhibitory activity against proliferation (cell survival rate) A549 (A549): ++ (30<survival rate (%)≤60)
- IC50 (LC3B; [1]): < 3 µM
- Inhibitory activity against proliferation (cell survival rate) SU-DHL6 (SU-DHL6): ++ (30<survival rate (%)≤60)
- Inhibitory activity against proliferation (cell survival rate) BxPC-3 (BxPC-3): + (60≤survival rate (%)<90)
- Inhibitory activity against proliferation (cell survival rate) RPMI-8226 (RPMI-8226): + (60≤survival rate (%)<90)

SMILES: O=C1CCC(N2Cc3c(NC=C4C(=O)CC(c5ccc(C(F)(F)F)cc5)CC4=O)cccc3C2=O)C(=O)N1 (stereo not shown) [Compound 21]
- Inhibitory activity against proliferation (cell survival rate) K562 (K562): ++ (30<survival rate (%)≤60)
- Inhibitory activity against proliferation (cell survival rate) MDA-MB-453 (MDA-MB-453): + (60≤survival rate (%)<90)
- Inhibitory activity against proliferation (cell survival rate) A549 (A549): ++ (30<survival rate (%)≤60)
- IC50 (LC3B; [1]): < 3 µM
- Inhibitory activity against proliferation (cell survival rate) SU-DHL6 (SU-DHL6): + (60≤survival rate (%)<90)
- Inhibitory activity against proliferation (cell survival rate) BxPC-3 (BxPC-3): + (60≤survival rate (%)<90)
- Inhibitory activity against proliferation (cell survival rate) RPMI-8226 (RPMI-8226): + (60≤survival rate (%)<90)

SMILES: CCOC(=O)C1C(=O)C(=CNc2cccc3c2CN(C2CCC(=O)NC2=O)C3=O)C(=O)CC1c1cccc2[nH]ccc12 (stereo not shown) [Compound 25]
- cell survival rate (%) at 50 µM (K562): 60 to 90%
- cell survival rate (%) at 50 µM (MDA-MB-453): 60 to 90%
- cell survival rate (% of control) at 50 µM (A549): 60 to 90%
- IC50 (LC3B): < 3 µM
- cell survival rate (% of control) at 50 µM (SU-DHL6): 60 to 90%
- cell survival rate (%) at 50 µM (BxPC-3): 60 to 90%
- cell survival rate (% of control) at 50 µM (RPMI-8226): 60 to 90%

SMILES: CCOC(=O)C1C(=O)C(=CNc2cccc3c2C(=O)N(C2CCC(=O)NC2=O)C3=O)C(=O)CC1c1cccc2[nH]ccc12 (stereo not shown) [Compound 26]
- cell survival rate (%) at 50 µM (K562): 60 to 90%
- cell survival rate (%) at 50 µM (MDA-MB-453): 60 to 90%
- cell survival rate (% of control) at 50 µM (A549): 60 to 90%
- IC50 (LC3B): < 3 µM
- cell survival rate (% of control) at 50 µM (SU-DHL6): 60 to 90%
- cell survival rate (%) at 50 µM (BxPC-3): 60 to 90%
- cell survival rate (% of control) at 50 µM (RPMI-8226): 60 to 90%

SMILES: O=C1CCC(N2Cc3c(NC=C4C(=O)CC(c5c[nH]c6ccccc56)CC4=O)cccc3C2=O)C(=O)N1 (stereo not shown) [Compound 38]
- Inhibitory activity against proliferation (cell survival rate) K562 (K562): +++ (survival rate (%)≤30)
- Inhibitory activity against proliferation (cell survival rate) MDA-MB-453 (MDA-MB-453): +++ (survival rate (%)≤30)
- Inhibitory activity against proliferation (cell survival rate) A549 (A549): +++ (survival rate (%)≤30)
- IC50 (LC3B; [1]): < 3 µM
- Inhibitory activity against proliferation (cell survival rate) SU-DHL6 (SU-DHL6): +++ (survival rate (%)≤30)
- Inhibitory activity against proliferation (cell survival rate) BxPC-3 (BxPC-3): ++ (30<survival rate (%)≤60)
- Inhibitory activity against proliferation (cell survival rate) RPMI-8226 (RPMI-8226): +++ (survival rate (%)≤30)

SMILES: O=C1CCC(N2Cc3c(NC=C4C(=O)CC(c5cccc6[nH]ncc56)CC4=O)cccc3C2=O)C(=O)N1 (stereo not shown) [Compound 39]
- Inhibitory activity against proliferation (cell survival rate) K562 (K562): +++ (survival rate (%)≤30)
- Inhibitory activity against proliferation (cell survival rate) MDA-MB-453 (MDA-MB-453): +++ (survival rate (%)≤30)
- Inhibitory activity against proliferation (cell survival rate) A549 (A549): + (60≤survival rate (%)<90)
- IC50 (LC3B; [1]): < 3 µM
- Inhibitory activity against proliferation (cell survival rate) SU-DHL6 (SU-DHL6): ++ (30<survival rate (%)≤60)
- Inhibitory activity against proliferation (cell survival rate) BxPC-3 (BxPC-3): ++ (30<survival rate (%)≤60)
- Inhibitory activity against proliferation (cell survival rate) RPMI-8226 (RPMI-8226): + (60≤survival rate (%)<90)

SMILES: O=C1CCC(N2Cc3c(NC=C4C(=O)CC(c5c[nH]c6cccc(F)c56)CC4=O)cccc3C2=O)C(=O)N1 (stereo not shown) [Compound 41]
- Inhibitory activity against proliferation (cell survival rate) K562 (K562): +++ (survival rate (%)≤30)
- Inhibitory activity against proliferation (cell survival rate) MDA-MB-453 (MDA-MB-453): + (60≤survival rate (%)<90)
- Inhibitory activity against proliferation (cell survival rate) A549 (A549): +++ (survival rate (%)≤30)
- IC50 (LC3B; [1]): < 3 µM
- Inhibitory activity against proliferation (cell survival rate) SU-DHL6 (SU-DHL6): + (60≤survival rate (%)<90)
- Inhibitory activity against proliferation (cell survival rate) BxPC-3 (BxPC-3): + (60≤survival rate (%)<90)
- Inhibitory activity against proliferation (cell survival rate) RPMI-8226 (RPMI-8226): + (60≤survival rate (%)<90)

SMILES: O=C1CCC(N2Cc3c(NC(=O)CNC=C4C(=O)CC(c5ccccc5)CC4=O)cccc3C2=O)C(=O)N1 (stereo not shown) [Compound 42]
- Inhibitory activity against proliferation (cell survival rate) K562 (K562): ++ (30<survival rate (%)≤60)
- Inhibitory activity against proliferation (cell survival rate) MDA-MB-453 (MDA-MB-453): + (60≤survival rate (%)<90)
- Inhibitory activity against proliferation (cell survival rate) A549 (A549): ++ (30<survival rate (%)≤60)
- IC50 (LC3B; [1]): 100 to 1000 µM
- Inhibitory activity against proliferation (cell survival rate) SU-DHL6 (SU-DHL6): + (60≤survival rate (%)<90)
- Inhibitory activity against proliferation (cell survival rate) BxPC-3 (BxPC-3): + (60≤survival rate (%)<90)
- Inhibitory activity against proliferation (cell survival rate) RPMI-8226 (RPMI-8226): ++ (30<survival rate (%)≤60)

SMILES: C[C@@H](CC(=O)Nc1cccc2c1CN(C1CCC(=O)NC1=O)C2=O)NC=C1C(=O)CC(c2ccccc2)CC1=O (stereo partly shown) [Compound 44]
- Inhibitory activity against proliferation (cell survival rate) K562 (K562): +++ (survival rate (%)≤30)
- Inhibitory activity against proliferation (cell survival rate) MDA-MB-453 (MDA-MB-453): + (60≤survival rate (%)<90)
- Inhibitory activity against proliferation (cell survival rate) A549 (A549): +++ (survival rate (%)≤30)
- IC50 (LC3B; [1]): 100 to 1000 µM
- Inhibitory activity against proliferation (cell survival rate) SU-DHL6 (SU-DHL6): +++ (survival rate (%)≤30)
- Inhibitory activity against proliferation (cell survival rate) BxPC-3 (BxPC-3): + (60≤survival rate (%)<90)
- Inhibitory activity against proliferation (cell survival rate) RPMI-8226 (RPMI-8226): +++ (survival rate (%)≤30)

SMILES: O=C1CCC(N2Cc3c(NC(=O)CCNC=C4C(=O)CC(c5ccccc5)CC4=O)cccc3C2=O)C(=O)N1 (stereo not shown) [Compound 45]
- Inhibitory activity against proliferation (cell survival rate) K562 (K562): + (60≤survival rate (%)<90)
- Inhibitory activity against proliferation (cell survival rate) MDA-MB-453 (MDA-MB-453): + (60≤survival rate (%)<90)
- Inhibitory activity against proliferation (cell survival rate) A549 (A549): + (60≤survival rate (%)<90)
- IC50 (LC3B; [1]): 100 to 1000 µM
- Inhibitory activity against proliferation (cell survival rate) SU-DHL6 (SU-DHL6): + (60≤survival rate (%)<90)
- Inhibitory activity against proliferation (cell survival rate) BxPC-3 (BxPC-3): + (60≤survival rate (%)<90)
- Inhibitory activity against proliferation (cell survival rate) RPMI-8226 (RPMI-8226): + (60≤survival rate (%)<90)

SMILES: O=C1CCC(N2Cc3c(NC(=O)CCCCNC=C4C(=O)CC(c5ccccc5)CC4=O)cccc3C2=O)C(=O)N1 (stereo not shown) [Compound 46]
- Inhibitory activity against proliferation (cell survival rate) K562 (K562): ++ (30<survival rate (%)≤60)
- Inhibitory activity against proliferation (cell survival rate) MDA-MB-453 (MDA-MB-453): +++ (survival rate (%)≤30)
- Inhibitory activity against proliferation (cell survival rate) A549 (A549): +++ (survival rate (%)≤30)
- IC50 (LC3B; [1]): 100 to 1000 µM
- Inhibitory activity against proliferation (cell survival rate) SU-DHL6 (SU-DHL6): + (60≤survival rate (%)<90)
- Inhibitory activity against proliferation (cell survival rate) BxPC-3 (BxPC-3): + (60≤survival rate (%)<90)
- Inhibitory activity against proliferation (cell survival rate) RPMI-8226 (RPMI-8226): ++ (30<survival rate (%)≤60)

SMILES: O=C1CCC(N2Cc3c(NC(=O)CCCNC=C4C(=O)CC(c5ccccc5)CC4=O)cccc3C2=O)C(=O)N1 (stereo not shown) [Compound 47]
- Inhibitory activity against proliferation (cell survival rate) K562 (K562): + (60≤survival rate (%)<90)
- Inhibitory activity against proliferation (cell survival rate) MDA-MB-453 (MDA-MB-453): +++ (survival rate (%)≤30)
- Inhibitory activity against proliferation (cell survival rate) A549 (A549): + (60≤survival rate (%)<90)
- IC50 (LC3B; [1]): 100 to 1000 µM
- Inhibitory activity against proliferation (cell survival rate) SU-DHL6 (SU-DHL6): +++ (survival rate (%)≤30)
- Inhibitory activity against proliferation (cell survival rate) BxPC-3 (BxPC-3): ++ (30<survival rate (%)≤60)
- Inhibitory activity against proliferation (cell survival rate) RPMI-8226 (RPMI-8226): + (60≤survival rate (%)<90)

SMILES: O=C1CCC(N2Cc3c(NC(=O)COCCNC=C4C(=O)CC(c5ccccc5)CC4=O)cccc3C2=O)C(=O)N1 (stereo not shown) [Compound 48]
- Inhibitory activity against proliferation (cell survival rate) K562 (K562): +++ (survival rate (%)≤30)
- Inhibitory activity against proliferation (cell survival rate) MDA-MB-453 (MDA-MB-453): +++ (survival rate (%)≤30)
- Inhibitory activity against proliferation (cell survival rate) A549 (A549): +++ (survival rate (%)≤30)
- IC50 (LC3B; [1]): 100 to 1000 µM
- Inhibitory activity against proliferation (cell survival rate) SU-DHL6 (SU-DHL6): +++ (survival rate (%)≤30)
- Inhibitory activity against proliferation (cell survival rate) BxPC-3 (BxPC-3): + (60≤survival rate (%)<90)
- Inhibitory activity against proliferation (cell survival rate) RPMI-8226 (RPMI-8226): +++ (survival rate (%)≤30)
